According to patent publication US11324740B2, “Use of agonists of type-2 dopaminergic receptors in treatment of conditions caused by elevated vascular endothelial growth factor levels” (priority 2016, dated 2022):

Assays:
Format in all cases: in vivo, Wistar strain rats
Details in all cases: cabergoline oral 0.05 mg/kg b.w. over 14 days
[1] = tested on: experimental model for diabetic retinopathy; assay: Blood-retinal barrier permeability (dextran method) and retinal thickness (OCT) in streptozocin model for diabetic retinopathy
Method: (§1) The Effects of Administration of Cabergoline on Permeability of Blood-Retinal Barrier and on Retinal Thickness in an Experimental Model for Diabetic Retinopathy The research was conducted on an experimental model of Wistar strain rats. In order to cause diabetes, the rats were injected intraperitoneally with streptozocin at a dose of 60 mg/kg b.w. After 30 days since administration of streptozocin blood glucose level was checked and only rats with the blood glucose levels of over 250 mg % were qualified for the experiment. In the course of the experiment, the following parameters were assessed: permeability of blood-retinal barrier using the dextran method (BRB) and the thickness of the retina using optical coherence tomography (OCT). In the experiment, 4 experimental groups were compared: healthy animals without cabergoline administration, healthy animals with cabergoline administration (14 days of use), animals with diabetes without cabergoline, animals with diabetes with cabergoline (14 days of use). Cabergoline was administered to the animals in oral form at a dose of 0.05 mg/kg b.w. over 14 days.

[2] = tested on: experimental model for central retinal vein occlusion; assay: Blood-retinal barrier permeability (dextran method) and retinal thickness (OCT) in laser model for central retinal vein occlusion
Method: as §1, with “and” for “and on”, “Central Retinal Vein Occlusion.” for “Diabetic Retinopathy”, “Central retinal vein occlusion was performed using” for “In order to cause diabetes, the rats were injected intraperitoneally with streptozocin at”, “532 nm laser.” for “dose of 60 mg/kg b.w. After 30 days since administration of streptozocin blood glucose level was checked and only rats with the blood glucose levels of over 250 mg % were qualified for the experiment.”, “central retinal vein occlusion” for “diabetes”

[3] = tested on: experimental model for choroidal neovascularization (CNV); assay: Blood-retinal barrier permeability (dextran method) and retinal thickness (OCT) in laser model for choroidal neovascularization (CNV)
Method: as §1, with “and” for “and on”, “Choroidal Neovascularization (CNV).” for “Diabetic Retinopathy”, “Choroidal neovascularization (CNV) was performed by photocoagulation of” for “In order to cause diabetes,”, “retina using” for “rats were injected intraperitoneally with streptozocin at”, “532 nm laser.” for “dose of 60 mg/kg b.w. After 30 days since administration of streptozocin blood glucose level was checked and only rats with the blood glucose levels of over 250 mg % were qualified for the experiment.”, “CNV” for “diabetes”

[4] = rats with streptozocin diabetes
[5] = rats with central retinal vein occlusion

Q: With `C=CCN1C[C@H](C(=O)N(CCCN(C)C)C(=O)NCC)C[C@@H]2c3cccc4[nH]cc(c34)C[C@H]21` [cabergoline, Cabergoline] as the compound, how does the “BRB (permeability of blood-retinal barrier, dextran method)” value (from here on “BRB”) ([1]; healthy rats) read?
A: The value was 22.4 ± 7.5 µL/g/min.

Q: And the “OCT (thickness of the retina)” value ([1]; healthy rats)?
A: Its value is 281 ± 14 μm.

Q: And the “BRB” value [1, 4]?
A: Its value is 35.8 ± 10.6 µL/g/min.

Q: And the “OCT (thickness of the retina)” value [1, 4]?
A: Its value is 320 ± 35 μm.

Q: What about the “BRB” value ([2]; healthy rats) of the same compound?
A: The value was 25.1 ± 4.2 µL/g/min.

Q: What about the “OCT (thickness of the retina)” value ([2]; healthy rats) of the same compound?
A: The value was 258 ± 13 μm.

Q: And the “BRB” value [2, 5]?
A: Its value is 33.3 ± 12.9 µL/g/min.

Q: And the “OCT (thickness of the retina)” value [2, 5]?
A: Its value is 343 ± 28 μm.

Q: What about the “BRB” value ([3]; healthy rats) of the same compound?
A: Its value is 28.5 ± 6.6 µL/g/min.

Q: And the “OCT (thickness of the retina)” value ([3]; healthy rats)?
A: The value was 221 ± 22 μm.

Q: What about the “BRB” value ([3]; rats with CNV) of the same compound?
A: The value was 37.4 ± 15.2 µL/g/min.

Q: And the “OCT (thickness of the retina)” value ([3]; rats with CNV)?
A: Its value is 283 ± 17 μm.
